For eight compounds, GI50 and TGI results are on record in PubChem BioAssay (NCI).

Structures are written as SMILES.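 48-hour exposure; five concentrations; linearly interpolated endpoints. GI50 marks 50% less growth. TGI: concentration producing complete growth inhibition.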

In general, GI50 refers to the concentration giving 50% growth inhibition. A word on the TGI: it is the concentration giving total growth inhibition.

Among the test systems are TK-10 renal; MDA-MB-435; U251 CNS; HCT-116 colon; HOP-62 NSCLC; RXF 393 renal; SF-539 CNS; A498 renal; NCI-H460 lung; UACC-257 melanoma.
What all share (assay): DTP human tumour cell line panel, 48 h

In the case of `C[N+](C)(CCCCCC[N+](C)(C)CCCN1C(=O)c2cc3ccccc3cc2C1=O)CCCN1C(=O)c2cc3ccccc3cc2C1=O`, the GI50 in the assay on TK-10 renal, in the assay on MDA-MB-435, with U251 CNS, in the assay on HCT-116 colon, in the assay on HOP-62 NSCLC and in the assay on RXF 393 renal was above 37.5 µM throughout. Besides, the GI50 in the assay on SF-539 CNS, with A498 renal, with NCI-H460 lung and in the assay with UACC-257 melanoma was above 37.5 µM in each case. Further, the TGI in the assay with TK-10 renal, with MDA-MB-435, with U251 CNS, in the assay on HCT-116 colon, in the assay with HOP-62 NSCLC and in the assay on RXF 393 renal was above 37.5 µM each time. In addition, the TGI in the assay with SF-539 CNS, in the assay with A498 renal, with NCI-H460 lung and with UACC-257 melanoma was above 37.5 µM in each case.

Regarding `CC(C)=CCC1=C(OCC(=O)O)C(=O)c2ccccc2C1=O`, the TGI was above 100 µM with TK-10 renal; 29 µM in the assay with MDA-MB-435; above 100 µM in the assay on U251 CNS; 66.8 µM with HCT-116 colon; above 100 µM in the assay on HOP-62 NSCLC; 81.1 µM in the assay with RXF 393 renal. The TGI in the assay with SF-539 CNS was 56.6 µM; in the assay with A498 renal, above 100 µM; in the assay on NCI-H460 lung it was above 100 µM; in the assay with UACC-257 melanoma it was 76 µM.

As to `C=C1CCC2C3(C)COC(c4c(OC)cccc4OC)OC3CCC2(C)C1C/C=C1/C(=O)OCC1O` (stereo not given), the GI50 was 4.03 µM in the assay with TK-10 renal; 2.88 µM in the assay with MDA-MB-435; 1.91 µM in the assay with U251 CNS; 1.64 µM in the assay with HCT-116 colon; 14.8 µM with HOP-62 NSCLC; 1.92 µM in the assay on RXF 393 renal. Besides, the GI50 with SF-539 CNS was 2.55 µM; with A498 renal, 15 µM; in the assay with NCI-H460 lung it was 4.71 µM; in the assay with UACC-257 melanoma it was 13.5 µM. The TGI in the assay on TK-10 renal was found to be 12.5 µM; in the assay with MDA-MB-435, 10.8 µM; in the assay on U251 CNS it was 4.36 µM; in the assay on HCT-116 colon, 3.11 µM; in the assay with HOP-62 NSCLC, 28.7 µM; in the assay on RXF 393 renal, 3.55 µM. Also, the TGI in the assay with SF-539 CNS is 6.35 µM; with A498 renal, 29.6 µM; with NCI-H460 lung it was 19.5 µM; in the assay with UACC-257 melanoma it was 31 µM.

For the compound `O=C(N=Nc1c(O)[nH]c2ccccc12)c1oc2ccccc2c1CN1CCN(c2ccccc2)CC1`, the GI50 in the assay with TK-10 renal is 1.05 µM; in the assay on MDA-MB-435 it was 2.07 µM; in the assay with U251 CNS, 1.97 µM; in the assay on HCT-116 colon, 1.55 µM; in the assay on HOP-62 NSCLC it was 2.7 µM; in the assay with RXF 393 renal, 1.01 µM. The GI50 in the assay on SF-539 CNS is 2.5 µM; in the assay with A498 renal, 1.56 µM; in the assay on NCI-H460 lung, 1.17 µM; in the assay on UACC-257 melanoma it was 4.03 µM. Moreover, the TGI in the assay on TK-10 renal was determined as 3.58 µM; in the assay on MDA-MB-435 it was 8.26 µM; with U251 CNS, 8.67 µM; in the assay with HCT-116 colon it was 5.34 µM; in the assay with HOP-62 NSCLC it was 10.9 µM; in the assay on RXF 393 renal, 3.17 µM. Further, the TGI stood at 8.53 µM in the assay on SF-539 CNS, 8.87 µM in the assay with A498 renal, 2.79 µM in the assay on NCI-H460 lung and 28.3 µM with UACC-257 melanoma.

Regarding `CCC(C)[C@H](NC(=O)NC(=O)NC(=O)CI)C(=O)OC` (stereo not given in full), the GI50 in the assay with TK-10 renal is 2.96 µM; with MDA-MB-435, 10.5 µM; in the assay on U251 CNS, 14.8 µM; in the assay with HCT-116 colon, 6.05 µM; in the assay on HOP-62 NSCLC, 16.3 µM; with RXF 393 renal, 4.51 µM. The GI50 is 10.3 µM in the assay on SF-539 CNS, 16.2 µM in the assay with A498 renal, 17.4 µM in the assay with NCI-H460 lung and 12.6 µM in the assay with UACC-257 melanoma. Besides, the TGI stood at 11.8 µM in the assay on TK-10 renal; 22.3 µM in the assay on MDA-MB-435; 27.9 µM in the assay on U251 CNS; 18.3 µM in the assay with HCT-116 colon; 31.4 µM with HOP-62 NSCLC; 15.2 µM with RXF 393 renal. The TGI was determined as 22.8 µM in the assay on SF-539 CNS, 30.5 µM with A498 renal, 39.4 µM in the assay on NCI-H460 lung and 25.8 µM in the assay on UACC-257 melanoma.

As for `Nc1nc2c(nnn2C2OC(CO)C(O)C2O)c(=O)[nH]1` (stereo not given), the GI50 was 2.05 µM in the assay with TK-10 renal; 2.11 µM in the assay on MDA-MB-435; 2.96 µM with U251 CNS; 2.16 µM with HCT-116 colon; 3.2 µM in the assay on HOP-62 NSCLC; 1.4 µM in the assay with RXF 393 renal. For the same compound, the GI50 with SF-539 CNS was 1.59 µM; in the assay on A498 renal, 1.86 µM; with NCI-H460 lung it was 1.51 µM; with UACC-257 melanoma, 7.29 µM. The TGI in the assay on TK-10 renal was 32.6 µM; in the assay with MDA-MB-435, above 100 µM; in the assay on U251 CNS, above 100 µM; in the assay on HCT-116 colon, above 100 µM; in the assay with HOP-62 NSCLC, above 100 µM; with RXF 393 renal, 13.6 µM. Moreover, the TGI with SF-539 CNS is above 39.7 µM; with A498 renal, above 30.2 µM; in the assay on NCI-H460 lung it was above 40.6 µM; in the assay on UACC-257 melanoma, above 100 µM.

As to `CC(C)(CCN=C(N)Nc1ccccn1)c1ccc(C(F)(F)F)cc1`, the GI50 in the assay with TK-10 renal was 15.5 µM; in the assay on MDA-MB-435, 15.1 µM; in the assay on U251 CNS it was 16.4 µM; with HCT-116 colon, 10.6 µM; with HOP-62 NSCLC it was 15.7 µM; in the assay with RXF 393 renal it was 14.6 µM. Moreover, the GI50 in the assay with SF-539 CNS is 15.3 µM; with A498 renal, 14.9 µM; in the assay on NCI-H460 lung, 15.3 µM; in the assay on UACC-257 melanoma it was 18 µM. Besides, the TGI with TK-10 renal stood at 29.5 µM; with MDA-MB-435, 29 µM; in the assay with U251 CNS, 30.4 µM; in the assay with HCT-116 colon it was 24.3 µM; with HOP-62 NSCLC it was 30.2 µM; in the assay with RXF 393 renal, 29.6 µM. Moreover, the concentration for total growth inhibition (TGI) in the assay on SF-539 CNS was 29.4 µM; with A498 renal it was 28.8 µM; with NCI-H460 lung, 31.2 µM; with UACC-257 melanoma it was 32.8 µM.

Regarding `CSCC[C@H](NC(=O)[C@H](CC(C)C)NC(=O)[C@@H](Cc1ccccc1)NC(=O)CNC(=O)[C@@H](NC(=O)[C@H](C)NC(=O)[C@H](Cc1c[nH]c2ccccc12)NC(=O)[C@H](CCC(N)=O)NC(=O)[C@H](N)CC(N)=O)C(C)C)C(N)=O`, the TGI with TK-10 renal, in the assay on MDA-MB-435, with U251 CNS, with HCT-116 colon, in the assay with HOP-62 NSCLC and in the assay with RXF 393 renal was above 12.5 µM each time. The TGI with SF-539 CNS, with A498 renal, in the assay with NCI-H460 lung and in the assay with UACC-257 melanoma was above 12.5 µM in each case.
